Experimental data as given in EPA's ToxRefDB 2.

What was measured:
rat [1] = details: Combined chronic toxicity/carcinogenicity, fischer, Oral, Feed, dose end: 104 week, group: systemic
mouse [2] = details: Subchronic oral toxicity in rodents, cd1, Feed, dose end: 90 day, group: systemic
mouse [3] = details: Carcinogenicity, cd1, Oral, Feed, dose end: 80 week, group: systemic
dog [4] = details: Chronic toxicity, beagle, Oral, Capsule, dose end: 52 week, group: systemic
rat [5] = details: Subchronic oral toxicity in rodents, fischer, [Not Specified], dose end: 90 day, group: systemic
rat [6] = details: Prenatal developmental toxicity study, sprague dawley, Oral, Gavage/Intubation, dose end: 17 GD
dog [7] = details: Subchronic oral toxicity in nonrodent, beagle, Capsule, dose end: 90 day, group: systemic
rabbit [8] = details: Prenatal developmental toxicity study, new zealand white, Oral, Gavage/Intubation, dose end: 18 GD
rat [9] = details: Prenatal developmental toxicity study, sprague dawley, Oral, Gavage/Intubation, dose end: 15 GD
rat [10] = details: Subchronic oral toxicity in rodents, sprague dawley, Feed, dose end: 90 day, group: systemic
rat [11] = details: Multigenerational reproductive toxicity study, sprague dawley, Oral, Feed, dose end: 2 generation
rabbit [12] = details: Prenatal developmental toxicity study, new zealand white, Oral, Gavage/Intubation, dose end: 19 GD
rat [13] = details: Combined chronic toxicity/carcinogenicity, sprague dawley, Oral, Feed, dose end: 104 week, group: systemic
mouse [14] = details: Carcinogenicity, cd1, Oral, Feed, dose end: 80 week, group: systemic; remark: listed apart in the source
dog [15] = details: Chronic toxicity, beagle, Oral, Gavage/Intubation, dose end: 12 month, group: systemic
dog [16] = details: Subchronic oral toxicity in nonrodent, beagle, Gavage/Intubation, dose end: 90 day, group: systemic, systemic / in life observation / clinical signs / defecation (diarrhea) + systemic / in life observation / clinical signs / motor activity…
mouse [17] = details: Subchronic oral toxicity in rodents, cd1, Feed, dose end: 90 day, group: systemic, systemic / in life observation / body weight / body weight gain + systemic / in life observation / food consumption / food consumption + …
[18] = systemic / urinalysis / appearance and color / appearance and color + systemic / pathology microscopic / pancreas / proliferation
[19] = systemic / clinical chemistry / albumin / albumin + systemic / hematology / eosinophils / eosinophils + systemic / hematology / neutrophils…
[20] = systemic / hematology / eosinophils / eosinophils + systemic / hematology / neutrophils / neutrophils + systemic / organ weight / liver / …
[21] = systemic / clinical chemistry / alanine aminotransferase (alt/sgpt) / alanine aminotransferase (alt/sgpt) + systemic / clinical chemistry / …
[22] = systemic / pathology gross / gallbladder / discolored + systemic / pathology microscopic / liver / hemosiderin laden macrophages
[23] = systemic / hematology / blood clotting / blood clotting - activated partial thromboplastin time + systemic / hematology / blood clotting / …
[24] = group: developmental, developmental / developmental malformation / bone / misshapen + developmental / developmental malformation / bone / supernumerary + …
[25] = group: maternal, systemic / in life observation / clinical signs / general pallor + systemic / in life observation / clinical signs / piloerection + systemic…
[26] = systemic / in life observation / body weight / body weight gain + systemic / in life observation / food consumption / food efficiency
[27] = systemic / in life observation / body weight / body weight gain + systemic / in life observation / food consumption / food efficiency + …
[28] = group: developmental, developmental / developmental malformation / bone / full supernumerary
[29] = group: maternal, reproductive / reproductive performance / resorptions / resorptions + systemic / in life observation / body weight / body weight gain + …
[30] = group: developmental, systemic / in life observation / body weight / fetal weight + systemic / in life observation / body weight / litter weight
[31] = group: maternal, systemic / in life observation / body weight / body weight + systemic / in life observation / body weight / body weight gain + systemic / in…
[32] = systemic / in life observation / body weight / body weight + systemic / in life observation / body weight / body weight gain + systemic / in…
[33] = systemic / in life observation / body weight / body weight gain + systemic / organ weight / liver / relative to body weight
[34] = group: offspring, systemic / in life observation / body weight / offspring (pup) weight + systemic / in life observation / body weight / offspring (pup) …
[35] = group: parental, systemic / in life observation / body weight / body weight
[36] = group: developmental, developmental / developmental malformation / bone / full supernumerary + developmental / developmental malformation / bone / incomplete …
[37] = systemic / pathology microscopic / thyroid gland / adenoma + systemic / clinical chemistry / cholesterol / cholesterol + systemic / clinical…
[38] = systemic / pathology gross / urinary bladder / distended
[39] = systemic / pathology gross / urinary bladder / distended + systemic / hematology / lymphocyte / lymphocyte + systemic / hematology / …
[40] = systemic / hematology / blood clotting / blood clotting - thromboplastin time + systemic / in life observation / body weight / body weight …

`CCCCCCCCCCCCC1=C(OC(C)=O)C(=O)c2ccccc2C1=O` [Acequinocyl] was tested, and the LOAEL (rat [1]; systemic / pathology gross / eye / enlarged) was 9.02 mg/kg/day, the NOAEL (rat [1]; systemic / pathology gross / eye / enlarged + systemic / in life observation / body weight / body weight + systemic / in life observation / …) was 2.25 mg/kg/day and the LEL (rat [1]; [18]) was 2.92 mg/kg/day. For the same molecule, the NEL (rat [1]; [18]) was < 2.92 mg/kg/day, the LOAEL (mouse [2]; [19]) was 81 mg/kg/day and the NOAEL (mouse [2]; [19]) was 16 mg/kg/day. The LEL (mouse [2]; [20]) was 16 mg/kg/day, the NEL (mouse [2]; [20]) was < 16 mg/kg/day and the LEL (mouse [3]; [21]) was 2.7 mg/kg/day. For the same molecule, the NEL (mouse [3]; [21]) was < 2.7 mg/kg/day, the NOAEL (mouse [3]; [21]) was 7 mg/kg/day and the LOAEL (mouse [3]; systemic / pathology microscopic / liver / fatty change + systemic / pathology microscopic / liver / vacuolization) was 20.3 mg/kg/day. The LOAEL (dog [4]; systemic / hematology / platelet / platelet + systemic / hematology / reticulocyte / reticulocyte) was 20 mg/kg/day, the NOAEL (dog [4]; systemic / hematology / platelet / platelet + systemic / hematology / reticulocyte / reticulocyte + systemic / clinical chemistry / albumin…) was 5 mg/kg/day and the LEL (dog [4]; [22]) was 5 mg/kg/day. For the same molecule, the NEL (dog [4]; [22]) was < 5 mg/kg/day, the LEL (rat [5]; systemic / clinical chemistry / gamma glutamyl transpeptides (gtp) / gamma glutamyl transpeptides (gtp) + systemic / urinalysis / appearance…) was 30.4 mg/kg/day and the LOAEL (rat [5]; [23]) was 120 mg/kg/day. It also gave an NEL (rat [5]; [23]) of 7.6 mg/kg/day, an NOAEL (rat [5]; [23]) of 30.4 mg/kg/day and an LEL (rat [6]; [24]) of 750 mg/kg/day. It also gave an LOAEL (rat [6]; [24]) of 750 mg/kg/day, an NEL (rat [6]; [24]) of 500 mg/kg/day and an NOAEL (rat [6]; [24]) of 500 mg/kg/day. The LEL (rat [6]; [25]) was 500 mg/kg/day, the LOAEL (rat [6]; [25]) was 500 mg/kg/day and the NEL (rat [6]; [25]) was 150 mg/kg/day. For the same molecule, the NOAEL (rat [6]; [25]) was 150 mg/kg/day, the LOAEL (dog [7]; [26]) was 40 mg/kg/day and the NOAEL (dog [7]; [26]) was < 40 mg/kg/day. For the same molecule, the LEL (dog [7]; [27]) was 40 mg/kg/day, the NEL (dog [7]; [27]) was < 40 mg/kg/day and the LEL (rabbit [8]; [28]) was 120 mg/kg/day. For the same molecule, the LOAEL (rabbit [8]; [28]) was 120 mg/kg/day, the NEL (rabbit [8]; [28]) was 60 mg/kg/day and the NOAEL (rabbit [8]; [28]) was 60 mg/kg/day. It also gave an LEL (rabbit [8]; [29]) of 120 mg/kg/day, an LOAEL (rabbit [8]; [29]) of 120 mg/kg/day and an NEL (rabbit [8]; [29]) of 60 mg/kg/day. The NOAEL (rabbit [8]; [29]) was 60 mg/kg/day.
Molecule `Cc1cc(C)nc(Nc2ccccc2)n1` [Pyrimethanil] has an LEL (rat [9]; [30]) of 1000 mg/kg/day, an LOAEL (rat [9]; [30]) of 1000 mg/kg/day and an NEL (rat [9]; [30]) of 85 mg/kg/day. For the same molecule, the NOAEL (rat [9]; [30]) was 85 mg/kg/day, the LOAEL (rat [9]; group: maternal, systemic / in life observation / body weight / body weight + systemic / in life observation / body weight / body weight gain) was 1000 mg/kg/day and the LEL (rat [9]; [31]) was 1000 mg/kg/day. The NEL (rat [9]; [31]) was 85 mg/kg/day, the NOAEL (rat [9]; [31]) was 85 mg/kg/day and the LOAEL (rat [10]; [32]) was 529 mg/kg/day. The NOAEL (rat [10]; [32]) was 54.5 mg/kg/day, the LEL (rat [10]; [33]) was 6.8 mg/kg/day and the NEL (rat [10]; [33]) was < 6.8 mg/kg/day. For the same molecule, the LOAEL (rat [11]; group: offspring, systemic / in life observation / body weight / offspring (pup) weight) was 294 mg/kg/day, the LEL (rat [11]; [34]) was 294 mg/kg/day and the NEL (rat [11]; [34]) was 23.1 mg/kg/day. For the same molecule, the NOAEL (rat [11]; [34]) was 23.1 mg/kg/day, the LEL (rat [11]; [35]) was 1.9 mg/kg/day and the NEL (rat [11]; [35]) was < 1.9 mg/kg/day. It also gave an LOAEL (rat [11]; group: parental, systemic / in life observation / body weight / body weight + systemic / in life observation / body weight / body weight gain) of 294 mg/kg/day, an NOAEL (rat [11]; group: parental, systemic / in life observation / body weight / body weight + systemic / in life observation / body weight / body weight gain + systemic / in…) of 23.1 mg/kg/day and an LEL (rabbit [12]; [36]) of 300 mg/kg/day. The LOAEL (rabbit [12]; [36]) was 300 mg/kg/day, the NEL (rabbit [12]; [36]) was 45 mg/kg/day and the NOAEL (rabbit [12]; [36]) was 45 mg/kg/day. The LOAEL (rabbit [12]; [31]) was 300 mg/kg/day, the NEL (rabbit [12]; [31]) was 7 mg/kg/day and the NOAEL (rabbit [12]; [31]) was 45 mg/kg/day. For the same molecule, the LEL (rabbit [12]; group: maternal, systemic / in life observation / clinical signs / defecation) was 45 mg/kg/day, the LEL (rat [13]; systemic / clinical chemistry / gamma glutamyl transferase (ggt) / gamma glutamyl transferase (ggt) + systemic / organ weight / liver / …) was 17 mg/kg/day and the LOAEL (rat [13]; [37]) was 221 mg/kg/day. For the same molecule, the NEL (rat [13]; [37]) was 1.3 mg/kg/day, the NOAEL (rat [13]; [37]) was 17 mg/kg/day and the LEL (mouse [14]; [38]) was 2 mg/kg/day. The NEL (mouse [14]; [38]) was < 2 mg/kg/day, the LOAEL (mouse [14]; [39]) was > 211 mg/kg/day and the NOAEL (mouse [14]; [39]) was ≥ 211 mg/kg/day. It also gave an NEL (dog [15]; systemic / hematology / blood clotting / blood clotting - thromboplastin time + systemic / hematology / neutrophils / neutrophils + systemic…) of 2 mg/kg/day, an LOAEL (dog [15]; [40]) of 250 mg/kg/day and an NOAEL (dog [15]; [40]) of 30 mg/kg/day. The LEL (dog [15]; systemic / in life observation / clinical signs / vomitting) was 30 mg/kg/day, the LEL (dog [16]) was 800 mg/kg/day and the LOAEL (dog [16]) was 800 mg/kg/day. It also gave an NEL (dog [16]) of 80 mg/kg/day, an NOAEL (dog [16]) of 80 mg/kg/day and an LEL (mouse [17]) of 1860 mg/kg/day. The LOAEL (mouse [17]) was 1860 mg/kg/day, the NEL (mouse [17]) was 139 mg/kg/day and the NOAEL (mouse [17]) was 139 mg/kg/day.
